# Experimental data taken from US7358248B2, “Substituted amino carboxylic acids” (The Institute for Pharmaceutical Discovery LLC, priority 2003, dated 2008).
row,SMILES,melting point
1,"CC(C)(C)OC(=O)N[C@@H](CSCc1ccc(-c2ccc(-c3ccc4c(c3)OCO4)cc2)cc1)C(=O)O (stereo in doubt) [Example 101, 3-(4′-Benzo[1,3]dioxol-5-yl-biphenyl-4-ylmethylsulfanyl)-2-tert-butoxycarbonylamino-propionic acid]",178 to 180 °C
2,"CC(C)(C)OC(=O)N[C@@H](C[S+]([O-])Cc1ccc(-c2ccc(-n3ccc4ccccc43)cc2)cc1)C(=O)O (stereo partly drawn) [Example 7, (2R)-tert-Butoxycarbonylamino-3-(4′-indol-1-ylbiphen-4-ylmethylsulfinyl)-propionic acid]",169 to 170 °C
3,"O=C(Cc1cccc([N+](=O)[O-])c1)N[C@@H](CSCc1ccc(-c2ccc(-n3ccc4ccccc43)cc2)cc1)C(=O)O [Example 10, (2R)-3-(4′-Indol-1-ylbiphen-4-ylmethylsulfanyl)-2-[2-(3-nitrophenyl)acetylamino]-propionic acid]",94 °C
4,"COC(=O)N[C@@H](CSCc1ccc(-c2ccc(-n3ccc4ccccc43)cc2)cc1)C(=O)O [Example 12, (2R)-3-(4′-Indol-1-ylbiphen-4-ylmethylsulfanyl)-2-methoxycarbonylamino-propionic acid]",81 to 82 °C
5,"CC(C)COC(=O)N[C@@H](CSCc1ccc(-c2ccc(-n3ccc4ccccc43)cc2)cc1)C(=O)O [Example 13, (2R)-3-(4′-Indol-1-ylbiphen-4-ylmethylsulfanyl)-2-isobutoxycarbonylamino-propionic acid]",85 to 86 °C
6,"O=C(O)[C@H](CSCc1ccc(-c2ccc(-n3ccc4ccccc43)cc2)cc1)NC(=O)N1CCOCC1 [Example 14, (2R)-3-(4′-Indol-1-ylbiphen-4-ylmethylsulfanyl)-2-[(morpholine-4-carbonyl)-amino]-propionic acid]",195 °C (dec.)
7,"O=C(Cc1cccc([N+](=O)[O-])c1)N[C@@H](C[S+]([O-])Cc1ccc(-c2ccc(-n3ccc4ccccc43)cc2)cc1)C(=O)O (stereo partly drawn) [Example 17, (2R)-3-(4′-Indol-1-ylbiphen-4-ylmethylsulfinyl)-2-[2-(3-nitrophenyl)acetylamino]-propionic acid]",197 to 198 °C
8,"CC(C)(C)OC(=O)N[C@@H](CSCc1ccc(-c2ccc(-c3c(Cc4ccccc4)oc4ccccc34)cc2)cc1)C(=O)O [Example 66, (2R)-3-[4′-(2-benzylbenzofuran-3-yl)biphen-4-ylmethylsulfanyl]-2-tert-butoxy-carbonylamino-propionic acid]",89 to 90 °C
9,"CC(C)(C)OC(=O)N[C@@H](C[S+]([O-])Cc1ccc(-c2ccc(-c3c(Cc4ccccc4)oc4ccccc34)cc2)cc1)C(=O)O (stereo partly drawn) [Example 67, (2R,4RS)-3-[4′-(2-benzylbenzofuran-3-yl)biphen-4-ylmethylsulfinyl]-2-tert-butoxycarbonylaminopropionic acid]",195 to 196 °C
10,"CC(C)(C)OC(=O)N[C@@H](CS(=O)(=O)Cc1ccc(-c2ccc(-c3c(Cc4ccccc4)oc4ccccc34)cc2)cc1)C(=O)O [Example 68, (2R)-3-[4′-(2-benzylbenzofuran-3-yl)biphen-4-ylmethylsulfonyl]-2-tert-butoxycarbonylaminopropionic acid]",202 to 203 °C
11,"O=C(N[C@@H](CSCc1ccc(-c2ccc(-c3c(Cc4ccccc4)oc4ccccc34)cc2)cc1)C(=O)O)c1ccccc1 [Example 70, (2R)-2-Benzoylamino-3-[4′-(2-benzylbenzofuran-3-yl)biphen-4-ylmethylsulfanyl]-propionic acid]",138 to 139 °C
12,"O=C(Cc1ccccc1)N[C@@H](CSCc1ccc(-c2ccc(-c3c(Cc4ccccc4)oc4ccccc34)cc2)cc1)C(=O)O [Example 71, (2R)-2-Phenylacetylamino-3-[4′-(2-benzylbenzofuran-3-yl)biphen-4-ylmethyl-sulfanyl]-propionic acid]",77 to 78 °C
13,O=C(N[C@@H](CSCc1ccc(-c2ccc(-c3c(Cc4ccccc4)oc4ccccc34)cc2)cc1)C(=O)O)c1ccc2nc[nH]c2c1 [Example 73],149 to 150 °C
14,"O=C(Cc1ccc(F)cc1)N[C@@H](CSCc1ccc(-c2ccc(-c3c(Cc4ccccc4)oc4ccccc34)cc2)cc1)C(=O)O [Example 74, (2R)-2-(4-Fluorophenylacetylamino)-3-[4′-(2-benzylbenzofuran-3-yl)biphen-4-ylmethylsulfanyl]-propionic acid]",82 to 84 °C
15,"O=C(Cc1cccc([N+](=O)[O-])c1)N[C@@H](CSCc1ccc(-c2ccc(-c3c(Cc4ccccc4)oc4ccccc34)cc2)cc1)C(=O)O [Example 75, (2R)-2-(3-Nitrophenylacetylamino)-3-[4′-(2-benzylbenzofuran-3-yl)biphen-4-ylmethylsulfanyl]-propionic acid]",108 to 109 °C
16,"O=C(Cc1ccc([N+](=O)[O-])cc1)N[C@@H](CSCc1ccc(-c2ccc(-c3c(Cc4ccccc4)oc4ccccc34)cc2)cc1)C(=O)O [Example 77, (2R)-2-(4-Nitrophenylacetylamino)-3-[4′-(2-benzylbenzofuran-3-yl)biphen-4-ylmethylsulfanyl]-propionic acid]",102 to 103 °C
17,"O=C(Cc1ccccc1[N+](=O)[O-])N[C@@H](CSCc1ccc(-c2ccc(-c3c(Cc4ccccc4)oc4ccccc34)cc2)cc1)C(=O)O [Example 78, (2R)-2-(2-Nitrophenylacetylamino)-3-[4′-(2-benzylbenzofuran-3-yl)biphen-4-ylmethylsulfanyl]-propionic acid]",189 to 191 °C
18,"O=C(Cc1ccc(O)cc1)N[C@@H](CSCc1ccc(-c2ccc(-c3c(Cc4ccccc4)oc4ccccc34)cc2)cc1)C(=O)O [Example 79, (2R)-2-(4-Hydroxyphenylacetylamino)-3-[4′-(2-benzylbenzofuran-3-yl)biphen-4-ylmethylsulfanyl]-propionic acid]",148 to 149 °C
19,"CC(=O)N[C@@H](CSCc1ccc(-c2ccc(-c3c(Cc4ccccc4)oc4ccccc34)cc2)cc1)C(=O)O [Example 80, (2R)-2-Acetylamino-3-[4′-(2-benzylbenzofuran-3-yl)biphen-4-ylmethylsulfanyl]-propionic acid]",131 to 132 °C
20,"COc1ccc(CC(=O)N[C@@H](CSCc2ccc(-c3ccc(-c4c(Cc5ccccc5)oc5ccccc45)cc3)cc2)C(=O)O)cc1 [Example 81, (2R)-2-(4-Methoxyphenylacetylamino)-3-[4′-(2-benzylbenzofuran-3-yl)biphen-4-ylmethylsulfanyl]-propionic acid]",59 to 60 °C
21,"Nc1ccc(CC(=O)N[C@@H](CSCc2ccc(-c3ccc(-c4c(Cc5ccccc5)oc5ccccc45)cc3)cc2)C(=O)O)cc1 [Example 82, (2R)-2-(4-Aminophenylacetylamino)-3-[4′-(2-benzylbenzofuran-3-yl)biphen-4-ylmethylsulfanyl]-propionic acid]",170 to 172 °C
22,"CC(C)(C)OC(=O)NC(CSCc1ccc(-c2nc(-c3ccccc3)cc(-c3ccccc3)n2)cc1)C(=O)O (stereo not drawn) [Example 93, 2-tert-Butoxy carbonylamino-3-[4-(4,6-diphenylpyrimidin-2-yl)-benzylsulfanyl]propionic acid]",250 °C (dec.)
23,"CC(=O)NC(CSCc1ccc(-c2nc(-c3ccccc3)cc(-c3ccccc3)n2)cc1)C(=O)O (stereo not drawn) [Example 95, 2-Acetylamino-3-[4-(4,6-diphenyl-pyrimidin-2-yl)-benzylsulfanyl]-propionic acid]",223 to 226 °C
24,"CC(C)(C)OC(=O)N[C@@H](CSCc1ccc(-c2ccc(-c3cccc4c3sc3ccccc34)cc2)cc1)C(=O)O [Example 107, 2-tert-Butoxycarbonylamino-3-(4′-dibenzothiophen-4-yl-biphenyl-4-ylmethyl-sufanyl)-propionic acid]",108 to 110 °C
